pKd: −log10 of the molar value.

Chain of Neutrophil gelatinase-associated lipocalin (P80188 whole entry): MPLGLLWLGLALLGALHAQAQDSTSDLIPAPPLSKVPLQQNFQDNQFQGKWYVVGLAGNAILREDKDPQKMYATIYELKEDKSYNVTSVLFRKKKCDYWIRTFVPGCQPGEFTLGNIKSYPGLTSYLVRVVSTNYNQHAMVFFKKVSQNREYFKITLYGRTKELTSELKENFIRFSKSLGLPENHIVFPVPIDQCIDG

The target in the experiment is Neutrophil gelatinase-associated lipocalin (Homo sapiens, UniProt P80188). Description: Fluorescence quenching titrations. Conditions: pH 7.4. As for the experimental part:
The ligand solutions (10uM siderophore, TBS with 5% (v/v) DMSO, pH 7.4) were prepared from 4mM stock solution in DMSO. The protein solution was prepared as previously reported. Small amounts of ligand solution were mixed with the protein solution and equilibrated for at least 4 min before fluorescence measurement. The data was fit to a one-to-one binding model with two parameters, Kd and fluorescence response, using the program DYNAFIT.
In the case of `C[C@@H](O)[C@H](NC(=O)c1cccc(O)c1O)C(=O)N(CCCNC(=O)c1cccc(O)c1O)CCCNC(=O)c1cccc(O)c1O` [Fluvibactin A], the pKd (in general, the negative decadic logarithm of the Kd, by convention in mol/L) was 7.92. The value for `C[C@H]1OC(c2cccc(O)c2O)=N[C@@H]1C(=O)N(CCCNC(=O)c1cccc(O)c1O)CCCNC(=O)c1cccc(O)c1O` [Fluvibactin] was 7.47. Next, `C[C@@H](O)[C@H](NC(=O)c1cccc(O)c1O)C(=O)NCCCN(CCCNC(=O)c1cccc(O)c1O)C(=O)[C@@H](NC(=O)c1cccc(O)c1O)[C@@H](C)O` [Vibriobactin A]: 7.74.

The values above are taken from BindingDB's records for doi:10.1021/cb4002552 (University of California, 2013).
